We go through 17 molecules from patent publication US20220002279A1, “NOVEL IMIDAZOLE DERIVATIVE” (priority 2018, published 2022).

Test [1] has as its target T1, Escherichia coli LpxC enzyme (Escherichia coli, UniProt P0A725).
T1 construct: made in house; host or cells: Escherichia coli
T1 sequence (P0A725 1-305): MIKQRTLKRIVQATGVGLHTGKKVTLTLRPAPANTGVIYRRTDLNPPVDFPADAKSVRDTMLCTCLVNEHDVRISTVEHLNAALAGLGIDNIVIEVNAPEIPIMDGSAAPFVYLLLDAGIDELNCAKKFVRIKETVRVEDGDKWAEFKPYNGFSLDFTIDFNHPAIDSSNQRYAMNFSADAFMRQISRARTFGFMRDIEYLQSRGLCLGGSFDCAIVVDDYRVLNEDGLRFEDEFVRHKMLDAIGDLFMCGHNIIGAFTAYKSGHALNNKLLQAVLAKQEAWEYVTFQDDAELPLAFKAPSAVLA
Put plainly: Inhibitory activity on Escherichia coli LpxC enzyme (fluorescamine method). In kind it is biochemical. How it is done:
To assay the activity of Escherichia coli LpxC enzyme, LpxC was reacted with its substrate, UDP-3-O-(R-3-hydroxymyristoyl)-N-acetylglucosamine, and the amount of the reaction product was quantified by the amino groups present in the product
The reaction was terminated by the addition of 1.0 mg/mL-fluorescamine dissolved in a solvent obtained by mixing an equal amount of acetonitrile and dimethylformamide with the reaction mixture, and then, a 0.2 mol/L-sodium phosphate buffer solution (pH 8.0) was added thereto, and the amount of the reaction product was detected at an excitation wavelength/fluorescence wavelength=390 nm/495 nm. An inhibition curve was obtained by performing the aforementioned reaction in the presence of various concentrations of test compounds.

The test system of test [2] is Klebsiella pneumoniae strain ATCC13883. Briefly: Antimicrobial activity, MIC by broth microdilution. Particulars: ATCC13883, cation-adjusted Mueller-Hinton broth, about 5×10^5 CFU/mL, 35° C., about 18 hours, read-out: MIC Klebsiella pneumoniae ATCC13883. The format is cell-based. From the text:
(§1) Test Example 4 Evaluation of the Antimicrobial Activity
(§2) For minimum inhibitory concentration (MIC) measurement, the following broth microdilution method was applied as adapted from the standard procedure recommended by the CLSI (Clinical and Laboratory Standards Institute).
(§3) The bacteria used were Pseudomonas aeruginosa strain ATCC27853, Escherichia coli strain ATCC25922, and Klebsiella pneumoniae strain ATCC13883. After culture overnight on a heart infusion agar medium, the cells of a test bacterium were scraped off, and a bacterial solution suspended to have a turbidity of level 0.5 on the McFarland scale was diluted and used as an inoculum solution. The inoculum solution was inoculated in a cation-adjusted Mueller-Hinton broth medium containing a test compound so that the final inoculation concentration was about 5×10^5 CFU/mL, and cultured at 35° C. for about 18 hours. A minimum drug concentration at which no cell growth was visible to the naked eye was designated as MIC. […] In the table, ND represents the case where suppression of the cell growth in a drug concentration-dependent manner was not observed (Not Determined), and NT represents that no test was conducted (Not Tested).
For orientation: Broth dilution looks for growth in wells or tubes with falling amounts of substance.

Test [3] concerns Pseudomonas aeruginosa strain ATCC27853. Briefly: Antimicrobial activity, MIC by broth microdilution. The format is cell-based. Particulars: ATCC27853, 18 h, cation-adjusted Mueller-Hinton broth, about 5×10^5 CFU/mL, 35° C., about 18 hours, read-out: MIC Pseudomonas aeruginosa ATCC27853.
Source text: as §1, §2, §3

In test [4] the test system is Escherichia coli strain ATCC25922. Put plainly: Antimicrobial activity, MIC by broth microdilution. The format is cell-based. Particulars: ATCC25922, 18 h, cation-adjusted Mueller-Hinton broth, about 5×10^5 CFU/mL, 35° C., about 18 hours, read-out: MIC Escherichia coli ATCC25922.
Source text: as §1, §2, §3

Where [5] appears, read: fluorescamine detection, 3.1 nmol/L enzyme, 20 μmol/L substrate, pH 6.5, 120 min, read-out: IC50 (inhibitory activity on Escherichia coli LpxC enzyme, Fluoresamine method).

≈ marks a conversion by molar mass, not a printed value. Read-outs that look alike come from different tables or passages of the source.

For `C[C@H](O)c1nccn1Cc1cc(-c2ccc(C#C[C@@H]3[C@H]4CN(CCC(=O)O)C[C@@H]34)cc2)on1` [Compound 114, 3-[(1R,5S,6s)-6-({4-[3-({2-[(1S)-1-hydroxyethyl]-1H-imidazol-1-yl}methyl)-1,2-oxazol-5-yl]phenyl}ethynyl)-3-azabicyclo[3.1.0]hexan-3-yl]propanoic acid], the half-maximal inhibitory concentration (IC50) in test [1] (setting [5]) worked out at 291 nM. The minimum inhibitory concentration (MIC) in test [2] and in test [3] was 4 µg/mL (≈ 8.96 µM) each time.

For the molecule `CNC(=O)C(=O)N1C[C@@H]2[C@@H](C#Cc3ccc(-c4cc(Cn5ccnc5[C@H](C)O)no4)cc3)[C@@H]2C1` [Compound 105, 2-[(1R,5S,6s)-6-({4-[3-({2-[(1S)-1-Hydroxyethyl]-1H-imidazol-1-yl}methyl)-1,2-oxazol-5-yl]phenyl}ethynyl)-3-azabicyclo[3.1.0]hexan-3-yl]-N-methyl-2-oxoacetamide], the IC50 in test [1] (setting [5]) is 63.8 nM. The MIC came to 1 µg/mL (≈ 2.18 µM) in test [4], 1 µg/mL (≈ 2.18 µM) in test [2] and 16 µg/mL (≈ 34.8 µM) in test [3].

As for `C[C@H](O)c1nccn1Cc1cc(-c2ccc(C#CC3COC3)cc2)on1` [Compound 44, (1S)-1-{1-[(5-{4-[(oxetan-3-yl)ethynyl]phenyl}-1,2-oxazol-3-yl)methyl]-1H-imidazol-2-yl}ethan-1-ol], the IC50 in test [1] (setting [5]) came out at 22.7 nM. For the same molecule, the values for the MIC in test [4], in test [2] and in test [3] were 2 µg/mL (≈ 5.72 µM), 2 µg/mL (≈ 5.72 µM) and 128 µg/mL (≈ 366 µM), respectively.

Molecule `C[C@H](O)c1nccn1Cc1cc(-c2ccc(C#CC3C(CO)C3CO)cc2)on1` (stereo partly drawn) [Compound 109, (1S)-1-(1-{[5-(4-{[2,3-Bis(hydroxymethyl)cyclopropyl]ethynyl}phenyl)-1,2-oxazol-3-yl]methyl}-1H-imidazol-2-yl)ethan-1-ol] yielded an IC50 in test [1] of 131 nM. For the same molecule, the MIC is 16 µg/mL (≈ 40.7 µM) in test [4], 32 µg/mL (≈ 81.3 µM) in test [2] and 64 µg/mL (≈ 163 µM) in test [3].

On to `C[C@H](O)c1nccn1Cc1cc(-c2ccc(C#CCNC3CC3)cc2)on1` [Compound 51, (1S)-1-{1-[(5-(4-[3-(cyclopropylamino)prop-1-yn-1-yl]phenyl}-1,2-oxazol-3-yl)methyl]-1H-imidazol-2-yl}ethan-1-ol], for which, in test [1] (setting [5]), the IC50 amounted to 182 nM. The MIC was 1 µg/mL (≈ 2.76 µM) in test [4], 2 µg/mL (≈ 5.52 µM) in test [2] and more than 32 µg/mL in test [3].

Consider `C[C@H](O)c1nccn1Cc1cc(-c2ccc(C#C[C@@H]3[C@H]4CN(CC5COC5)C[C@@H]34)cc2)on1` [Compound 42, (1S)-1-[1-({5-[4-({(1R,5S,6s)-3-[(Oxetan-3-yl)methyl]-3-azabicyclo[3.1.0]hexan-6-yl}ethynyl)phenyl]-1,2-oxazol-3-yl}methyl)-1H-imidazol-2-yl]ethan-1-ol], for which, in test [1] (setting [5]), the IC50 turned out to be 46.8 nM. Also, the figures for the minimum inhibitory concentration (MIC) in test [4], in test [2] and in test [3] were 0.25 µg/mL (≈ 0.562 µM), 0.5 µg/mL (≈ 1.12 µM) and 16 µg/mL (≈ 36 µM), respectively.

In the case of `C[C@H](O)c1nccn1Cc1cc(-c2ccc(C#CC3CCOC3)cc2)on1` (stereo partly drawn) [Compound 49, (1S)-1-{1-[(5-{4-[(oxolan-3-yl)ethynyl]phenyl}-1,2-oxazol-3-yl)methyl]-1H-imidazol-2-yl}ethan-1-ol], in test [1] (setting [5]), the IC50 turned out to be 29.6 nM. Moreover, the minimum inhibitory concentration (MIC) is 0.5 µg/mL (≈ 1.38 µM) in test [4], 1 µg/mL (≈ 2.75 µM) in test [2] and more than 32 µg/mL in test [3].

As to `COCC(O)CN1C[C@@H]2[C@@H](C#Cc3ccc(-c4cc(Cn5ccnc5[C@H](C)O)no4)cc3)[C@@H]2C1` (stereo partly drawn) [Compound 57, 1-[(1R,5S,6s)-6-({4-[3-((2-[(1S)-1-hydroxyethyl]-1H-imidazol-1-yl}methyl)-1,2-oxazol-5-yl]phenyl}ethynyl)-3-azabicyclo[3.1.0]hexan-3-yl]-3-methoxypropan-2-ol], the IC50 in test [1] (setting [5]) was determined as 71 nM. Further, the MIC in test [4] is 0.5 µg/mL (≈ 1.08 µM); in test [2], 0.5 µg/mL (≈ 1.08 µM); in test [3], 8 µg/mL (≈ 17.3 µM).

For the molecule `CC(=O)N1CC(C#Cc2ccc(-c3cc(Cn4ccnc4[C@H](C)O)no3)cc2)C1` [Compound 69, 1-[3-({4-[3-({2-[(1S)-1-hydroxyethyl]-1H-imidazol-1-yl}methyl)-1,2-oxazol-5-yl]phenyl}ethynyl)azetidin-1-yl]ethan-1-one], the half-inhibitory concentration (IC50) in test [1] (setting [5]) is 54.2 nM. Moreover, the figures for the MIC in test [4], in test [2] and in test [3] were 4 µg/mL (≈ 10.2 µM), 8 µg/mL (≈ 20.5 µM) and 64 µg/mL (≈ 164 µM), respectively.

As to `COCC1CC1C#Cc1ccc(-c2cc(Cn3ccnc3[C@H](C)O)no2)cc1` (stereo in doubt) [Compound 66, (1S)-1-(1-{[5-(4-{[trans-2-(Methoxymethyl)cyclopropyl]ethynyl}phenyl)-1,2-oxazol-3-yl]methyl}-1H-imidazol-2-yl)ethan-1-ol], in test [1], the concentration for half-maximal inhibition (IC50) is less than 10 nM. Besides, the MIC in test [4] is 0.12 µg/mL (≈ 0.318 µM); in test [2], 0.12 µg/mL (≈ 0.318 µM); in test [3], 32 µg/mL (≈ 84.8 µM).

For `C[C@H](O)c1nccn1Cc1cc(-c2ccc(C#C[C@@H]3[C@H]4CN(CCN)C[C@@H]34)cc2)on1` [Compound 122, (1S)-1-(1-{[5-(4-{[(1R,5S,6s)-3-(2-aminoethyl)-3-azabicyclo[3.1.0]hexan-6-yl]ethynyl}phenyl)-1,2-oxazol-3-yl]methyl}-1H-imidazol-2-yl)ethan-1-ol], the IC50 in test [1] (setting [5]) stood at 84.6 nM. Besides, the MIC in test [4], in test [2] and in test [3] was 4 µg/mL (≈ 9.58 µM) in each case.

Consider `C[C@H](O)c1nccn1Cc1cc(-c2ccc(C#CC3CCS(=O)(=O)C3)cc2)on1` (stereo partly drawn) [Compound 119, 3-((4-(3-((2-((S)-1-hydroxyethyl)-1H-imidazol-1-yl)methyl)isoxazol-5-yl)phenyl)ethynyl)tetrahydrothiophene 1,1-dioxide], for which, in test [1] (setting [5]), the concentration for half-maximal inhibition (IC50) was 265 nM. Besides, the MIC in test [4] was 8 µg/mL (≈ 19.4 µM); in test [2], 16 µg/mL (≈ 38.9 µM); in test [3], more than 128 µg/mL.

`C[C@H](O)c1nccn1Cc1cc(-c2ccc(C#CC3(C)CN(C)C3)cc2)on1` [Compound 35, (1S)-1-{1-[(5-{4-[(1,3-dimethylazetidin-3-yl)ethynyl]phenyl}-1,2-oxazol-3-yl)methyl]-1H-imidazol-2-yl}ethan-1-ol]: the IC50 in test [1] (setting [5]) was found to be 815 nM. Further, the MIC in test [4] was 4 µg/mL (≈ 10.6 µM); in test [2], 16 µg/mL (≈ 42.5 µM); in test [3], more than 128 µg/mL.

In the case of `C[C@H](O)c1nccn1Cc1cc(-c2ccc(C#C[C@@H]3[C@H]4CN(C(=O)C(O)CO)C[C@@H]34)cc2)on1` (stereo partly drawn) [Compound 79, 2,3-dihydroxy-1-[(1R,5S,6s)-6-({4-[3-({2-[(1S)-1-hydroxyethyl]-1H-imidazol-1-yl}methyl)-1,2-oxazol-5-yl]phenyl}ethynyl)-3-azabicyclo[3.1.0]hexan-3-yl]propan-1-one], the 50% inhibitory concentration (IC50) in test [1] (setting [5]) came out at 92.7 nM. Further, the minimal inhibitory concentration (MIC) came out at 2 µg/mL (≈ 4.32 µM) in test [4], 4 µg/mL (≈ 8.65 µM) in test [2] and 32 µg/mL (≈ 69.2 µM) in test [3].

On to `COCC(=O)N1C[C@@H]2[C@@H](C#Cc3ccc(-c4cc(Cn5ccnc5[C@H](C)O)no4)cc3)[C@@H]2C1` [Compound 76, 1-[(1R,5S,6s)-6-({4-[3-({2-[(1S)-1-Hydroxyethyl]-1H-imidazol-1-yl}methyl)-1,2-oxazol-5-yl]phenyl}ethynyl)-3-azabicyclo[3.1.0]hexan-3-yl]-2-methoxyethan-1-one], for which the half-maximal inhibitory concentration (IC50) in test [1] (setting [5]) turned out to be 38 nM. In addition, the figures for the minimum inhibitory concentration (MIC) in test [4], in test [2] and in test [3] were 1 µg/mL (≈ 2.24 µM), 2 µg/mL (≈ 4.48 µM) and 32 µg/mL (≈ 71.7 µM), respectively.

Regarding `COCCN1CC(C)(C#Cc2ccc(-c3cc(Cn4ccnc4[C@H](C)O)no3)cc2)C1` [Compound 41, (1S)-1-(1-{[5-(4-{[l-(2-methoxyethyl)-3-methylazetidin-3-yl]ethynyl}phenyl)-1,2-oxazol-3-yl]methyl}-1H-imidazol-2-yl)ethan-1-ol], the 50% inhibitory concentration (IC50) in test [1] (setting [5]) was determined as 231 nM. The minimal inhibitory concentration (MIC) in test [4] was 2 µg/mL (≈ 4.76 µM); in test [2], 4 µg/mL (≈ 9.51 µM); in test [3] it was more than 128 µg/mL.

As to `C[C@H](O)c1nccn1Cc1cc(-c2ccc(C#CC3CC(N(C)C)C3)cc2)on1` (stereo partly drawn) [Compound 97, (1S)-1-(i{[5-(4-{[3-(dimethylamino)cyclobutyl]ethynyl}phenyl)-1,2-oxazol-3-yl]methyl}-1H-imidazol-2-yl)ethan-1-ol], in test [1] (setting [5]), the IC50 turned out to be 99.7 nM. Moreover, the MIC was determined as 4 µg/mL (≈ 10.2 µM) in test [4], 8 µg/mL (≈ 20.5 µM) in test [2] and 32 µg/mL (≈ 81.9 µM) in test [3].

By IC50 is commonly meant the point on the concentration scale where inhibition reaches its midpoint. A word on the MIC: it is the smallest concentration in the dilution series that meets the test's criterion for growth inhibition.
